Experimental data: patent US11326165B1, “Methods and compositions for modulating splicing” (SKYHAWK THERAPEUTICS, INC., priority 2017, dated 2022)

Key:
A375 xenografts = A375 xenografts in nude mice, tumor growth inhibition; assay type: in vivo
Method: (§1) Studies were performed to assess the effects of in vivo SMSM treatment on glioblastoma, breast, pancreatic, prostate, melanoma, lymphoma and Ewing sarcoma tumors. Studies were also performed to assess the effects of in vivo SMSM treatment on mRNA levels. Immunocompromised nude mice with pre-existing glioblastoma, breast, pancreatic, prostate, melanoma, lymphoma and Ewing sarcoma xenografts were treated with vehicle or SMSMs. Tumor tissues from subcutaneous xenografts were broken into a powder using a BioPulverizer (Biospec Products, Inc.). After SMSM treatment, mRNA was isolated from the xenografts and was analyzed by qRT-PCR.
(§2) Tumor size was measured 2 times per week in two dimensions using a caliper. Studies were terminated when the tumor size in the vehicle treated group reached 2,000 mm^3. Each mouse was bled at 2 hrs after the last dose and at least 50 μl of plasma was collected from each mouse. All of the collected plasma samples and retainer dosing solutions for each dose level were used for bioanalytical measurements. All tumors were also collected and weighed. One necrosis-free tumor fragment of approximately 50 mg was taken from each tumor and flash-frozen for RNA isolation. The remaining tumor was flash frozen for PK analysis.
(§3) The effects of in vivo SMSM treatments on pre-existing subcutaneous glioblastoma, breast, pancreatic, prostate, melanoma, lymphoma and Ewing sarcoma xenografts were assessed. For these in vivo experiments, 1×10^6Raji, A375, A673, MDA-MB-231, BxPC-3, PC-3 or U87 (cells re-suspended in 100 μl PBS were subcutaneously injected into the flanks of nude mice. When the tumor reached approximately 100 mm^3 (volume=(¾)(π)(length/2)(width/2)^2), the treatments indicated in the tables below were initiated.

A673 xenografts = A673 xenografts in nude mice, tumor growth inhibition; assay type: in vivo; conditions: A673 xenograft (FIGS. 16A-C), 1 mg/kg BID
Method: Dose range and time course studies comparing anti-neoplastic effects of SMSM−167 and SMSM−151 against vehicle were conducted.
Female NCrNu mice were used. Age range of enrolment was 7-10 weeks. A total of 75 animals were for the studies.
The A673 tumor cell line was maintained in vitro as a monolayer culture. […] The cells growing in an exponential growth phase were harvested and counted for tumor inoculation.
Each mouse were inoculated into a right flank with the single cell suspension of 95% viable tumor cells (5×10^6 cells/mouse) in serum-free RPMI 1640 Media for tumor development. Treatments were administered when mean tumor size reached approximately 75 mm^3.
Before commencement of treatment, all animals were weighed and assigned to treatment groups using a randomization procedure. Mice were randomized into groups based upon their tumor sizes to ensure that each group had approximately the same mean tumor size and range of tumor size.
After inoculation, the animals were checked daily for morbidity and mortality. At the time of routine monitoring, the animals were checked for any effects of tumor growth on normal behavior such as mobility, food and water consumption, body weight gain/loss, eye/hair matting and any other abnormal effects. Deaths and observed clinical signs were recorded.
Body weight were measured prior to tumor inoculation and prior to the treatment administration and then daily. Tumor size were measured 2-3 times per week in two dimensions using a caliper, and the volume were expressed in mm^3 using the formula: V=0.5×a×b^2 where a and b are the long and short diameters of the tumor, respectively.
as §2, with “Studies” for “Tumor size was measured 2 times per week in two dimensions using a caliper. Studies”, “plasma were” for “plasma was”
as §1, §2
as §3, with “initiated. […]” for “initiated.”

A673 cells = assay: Cell viability and proliferation, A673 cells (crystal violet); assay type: cell-based; conditions: cell proliferation IC50 in NHDF cells over A673 cells, 72 h
Method: Small molecule splicing modulators were tested in a dose-response assay using A673 cells and NHDF cells.
A673 cells or NHDF cells were first plated in 96-well plastic tissue culture plates (10,000 cells per well). The cells were treated with vehicle alone (DMSO), or increasing concentrations of SMSM compounds for 72 h. Following treatment, cell proliferation was determined using a crystal violet assay. The relative cell proliferation at each concentration was determined.

CN(c1ccc(-c2ccc(-c3cn[nH]c3)cc2O)nn1)[C@@H]1C[C@H]2CCC[C@@H](C1)N2 [compound 160, 2-(6-(((1R,3s,5S)-9-azabicyclo[3.3.1]nonan-3-yl)(methyl)amino)pyridazin-3-yl)-5-(1H-pyrazol-4-yl)phenol]
Tumor Growth Inhibition (TGI) (%) (A375 xenografts; A375 xenograft (FIGS. 17A-B), 3 mg/kg ip. BID, D4): 33.09% | Tumor Growth Inhibition (TGI) (%) (A375 xenografts; A375 xenograft (FIGS. 17A-B), 3 mg/kg ip. BID, D6): 92.99% | Tumor Growth Inhibition (TGI) (%) (A375 xenografts; A375 xenograft (FIGS. 17A-B), 3 mg/kg ip. BID, D10): 109.59% | Tumor Growth Inhibition (TGI) (%) (A375 xenografts; A375 xenograft (FIGS. 17A-B), 3 mg/kg ip. BID, D13): 105.98% | Tumor Growth Inhibition (TGI) (%) (A375 xenografts; A375 xenograft (FIGS. 17A-B), 3 mg/kg ip. BID, D17): 99.59% | Tumor Growth Inhibition (TGI) (%) (A375 xenografts; A375 xenograft (FIGS. 17A-B), 3 mg/kg ip. BID, D21): 94.68% | Tumor Growth Inhibition (TGI) (%) (A375 xenografts; A375 xenograft (FIGS. 17A-B), 3 mg/kg ip. QD, D4): 3.40% | Tumor Growth Inhibition (TGI) (%) (A375 xenografts; A375 xenograft (FIGS. 17A-B), 3 mg/kg ip. QD, D6): 47.56% | Tumor Growth Inhibition (TGI) (%) (A375 xenografts; A375 xenograft (FIGS. 17A-B), 3 mg/kg ip. QD, D10): 44.13% | Tumor Growth Inhibition (TGI) (%) (A375 xenografts; A375 xenograft (FIGS. 17A-B), 3 mg/kg ip. QD, D13): 40.08% | Tumor Growth Inhibition (TGI) (%) (A375 xenografts; A375 xenograft (FIGS. 17A-B), 3 mg/kg ip. QD, D17): 45.12% | Tumor Growth Inhibition (TGI) (%) (A375 xenografts; A375 xenograft (FIGS. 17A-B), 3 mg/kg ip. QD, D21): 53.98% | Tumor Growth Inhibition (TGI) (%) (A375 xenografts; A375 xenograft (FIGS. 17A-B), 10 mg/kg ip. QD*5day, D4): 72.84% | Tumor Growth Inhibition (TGI) (%) (A375 xenografts; A375 xenograft (FIGS. 17A-B), 10 mg/kg ip. QD*5day, D6): 118.42% | Tumor Growth Inhibition (TGI) (%) (A375 xenografts; A375 xenograft (FIGS. 17A-B), 10 mg/kg ip. QD*5day, D10): 112.78% | Tumor Growth Inhibition (TGI) (%) (A375 xenografts; A375 xenograft (FIGS. 17A-B), 10 mg/kg ip. QD*5day, D13): 103.12% | Tumor Growth Inhibition (TGI) (%) (A375 xenografts; A375 xenograft (FIGS. 17A-B), 10 mg/kg ip. QD*5day, D17): 97.84% | Tumor Growth Inhibition (TGI) (%) (A375 xenografts; A375 xenograft (FIGS. 17A-B), 10 mg/kg ip. QD*5day, D21): 95.59% | Tumor Growth Inhibition (TGI) (%) (A375 xenografts; A-375 xenograft (FIGS. 21A-B), 1.5 mg/kg i.p. BID *21 days, D4): 3.60% | Tumor Growth Inhibition (TGI) (%) (A375 xenografts; A-375 xenograft (FIGS. 21A-B), 1.5 mg/kg i.p. BID *21 days, D7): 18.11% | Tumor Growth Inhibition (TGI) (%) (A375 xenografts; A-375 xenograft (FIGS. 21A-B), 1.5 mg/kg i.p. BID *21 days, D11): 30.05% | Tumor Growth Inhibition (TGI) (%) (A375 xenografts; A-375 xenograft (FIGS. 21A-B), 1.5 mg/kg i.p. BID *21 days, D14): 30.28% | Tumor Growth Inhibition (TGI) (%) (A375 xenografts; A-375 xenograft (FIGS. 21A-B), 1.5 mg/kg i.p. BID *21 days, D18): 42.80% | Tumor Growth Inhibition (TGI) (%) (A375 xenografts; A-375 xenograft (FIGS. 21A-B), 1.5 mg/kg i.p. BID *21 days, D21): 37.88% | Tumor Growth Inhibition (TGI) (%) (A375 xenografts; A-375 xenograft (FIGS. 21A-B), 3 mg/kg i.p. BID *21 days, D4): 38.68% | Tumor Growth Inhibition (TGI) (%) (A375 xenografts; A-375 xenograft (FIGS. 21A-B), 3 mg/kg i.p. BID *21 days, D7): 46.64% | Tumor Growth Inhibition (TGI) (%) (A375 xenografts; A-375 xenograft (FIGS. 21A-B), 3 mg/kg i.p. BID *21 days, D11): 94.46% | Tumor Growth Inhibition (TGI) (%) (A375 xenografts; A-375 xenograft (FIGS. 21A-B), 3 mg/kg i.p. BID *21 days, D14): 89.78% | Tumor Growth Inhibition (TGI) (%) (A375 xenografts; A-375 xenograft (FIGS. 21A-B), 3 mg/kg i.p. BID *21 days, D18): 81.80% | Tumor Growth Inhibition (TGI) (%) (A375 xenografts; A-375 xenograft (FIGS. 21A-B), 3 mg/kg i.p. BID *21 days, D21): 71.33% | Tumor Growth Inhibition (TGI) (%) (A673 xenografts; Day 3): −0.94% | Tumor Growth Inhibition (TGI) (%) (A673 xenografts; Day 6): 25.67% | Tumor Growth Inhibition (TGI) (%) (A673 xenografts; Day 10): 25.67% | Tumor Growth Inhibition (TGI) (%) (A673 xenografts; Day 13): 42.90% | Ratio NHDF/A673 IC50 (A673 cells): >225

Nc1ccccc1NC(=O)c1ccc(CNc2nccc(-c3cccnc3)n2)cc1 [Mocetinostat]
Ratio NHDF/A673 IC50 (A673 cells): ≤10

CN(c1ccc(-c2ccc(-c3ccn(C)c(=O)c3)cc2O)nn1)[C@H]1C[C@]2(C)CC[C@](C)(C1)N2 [compound 168, 4-(4-(6-(((1R,3s,5S)-1,5-dimethyl-8-azabicyclo[3.2.1]octan-3-yl)(methyl)amino)pyridazin-3-yl)-3-hydroxyphenyl)-1-methylpyridin-2(1H)-one]
Ratio NHDF/A673 IC50 (A673 cells): >500

Cc1[nH]c2ccccc2c1CCNCc1ccc(/C=C/C(=O)NO)cc1 [Panobinostat]
Ratio NHDF/A673 IC50 (A673 cells): ≤10

CC(/C=C/C(=O)NO)=C\[C@@H](C)C(=O)c1ccc(N(C)C)cc1 [Trichostatin A]
Ratio NHDF/A673 IC50 (A673 cells): ≤10

CCCS(=O)(=O)Nc1ccc(F)c(C(=O)c2c[nH]c3ncc(-c4ccc(Cl)cc4)cc23)c1F [Vemurafenib, vemurafenib, reference compound]
Tumor Growth Inhibition (TGI) (%) (A375 xenografts; A375 xenograft (FIGS. 17A-B), 50 mg/kg p.o. BID, D4): 9.47% | Tumor Growth Inhibition (TGI) (%) (A375 xenografts; A375 xenograft (FIGS. 17A-B), 50 mg/kg p.o. BID, D6): 9.98% | Tumor Growth Inhibition (TGI) (%) (A375 xenografts; A375 xenograft (FIGS. 17A-B), 50 mg/kg p.o. BID, D10): 24.32% | Tumor Growth Inhibition (TGI) (%) (A375 xenografts; A375 xenograft (FIGS. 17A-B), 50 mg/kg p.o. BID, D13): 50.53% | Tumor Growth Inhibition (TGI) (%) (A375 xenografts; A375 xenograft (FIGS. 17A-B), 50 mg/kg p.o. BID, D17): 69.66% | Tumor Growth Inhibition (TGI) (%) (A375 xenografts; A375 xenograft (FIGS. 17A-B), 50 mg/kg p.o. BID, D21): 82.03% | Tumor Growth Inhibition (TGI) (%) (A375 xenografts; A-375 xenograft (FIGS. 21A-B), 50 mg/kg p.o. BID *21 days, D4): 111.22% | Tumor Growth Inhibition (TGI) (%) (A375 xenografts; A-375 xenograft (FIGS. 21A-B), 50 mg/kg p.o. BID *21 days, D7): 112.77% | Tumor Growth Inhibition (TGI) (%) (A375 xenografts; A-375 xenograft (FIGS. 21A-B), 50 mg/kg p.o. BID *21 days, D11): 114.44% | Tumor Growth Inhibition (TGI) (%) (A375 xenografts; A-375 xenograft (FIGS. 21A-B), 50 mg/kg p.o. BID *21 days, D14): 109.55% | Tumor Growth Inhibition (TGI) (%) (A375 xenografts; A-375 xenograft (FIGS. 21A-B), 50 mg/kg p.o. BID *21 days, D18): 107.72% | Tumor Growth Inhibition (TGI) (%) (A375 xenografts; A-375 xenograft (FIGS. 21A-B), 50 mg/kg p.o. BID *21 days, D21): 106.56%

O=C(/C=C/c1cccc(S(=O)(=O)Nc2ccccc2)c1)NO [Belinostat]
Ratio NHDF/A673 IC50 (A673 cells): ≤10
